“Also recorded” adds a separate entry of the source. *1 amine or outer side, *2 acyl side, *3 side chain or, on linkers, in order; H or OH if unused. Where a SMILES comes first, the peptide text is derived from it. Side-chain parts run from the residue outwards. The star is where a group is joined. γGlu = O=C(O)[C@H](CCC(=O)[*:2])N[*:1]; Palmitoyl = CCCCCCCCCCCCCCCC(=O)*
Key:
[1] = tested on: MDA‐MB‐231 LM1 breast cancer; test: MDA‐MB‐231 LM1 CDX mouse model; assay type: in vivo
Protocol: Animal experiments were conducted in accordance with ethical guidelines, and all protocols were approved by the Institutional Animal Care and Use Committee under Hanyang University (approval numbers, 2014‐0016A, 2018‐0049A, 2018‐0207A, and 2019‐0169A), Chung‐Ang University (approval number, 2015‐00022), Chungbuk University (approval number, CBNUA‐1072‐17‐02), and Konkuk University (approval number, KU17130). To establish xenograft mice models, Hep3B, A431, U343, and PC9 cells were subcutaneously injected into the flank of Balb/c nude mice. For the MDA‐MB‐231 (LM1) cell line, it was implanted into the mammary fat pad of immunodeficient mice (NPG mice). […] Tumor volume was calculated using the formula of length × width^2)/2. […] The in vivo administration amount was determined based on the concentration of ACP52C confirmed at the cellular level, which was 2 µM. […] For ACP52C derivatives, the amount was adjusted to ensure a similar molar quantity of peptide injection, taking their molecular weights into account. For instance, in the case of ACP52CGK, ≈1.67 times the quantity was used compared to ACP52C to achieve an equivalent molar quantity. […] Hematoxylin and eosin (H&E)‐stained tissue sections were analyzed and photographed, and the representative histological images were recorded. […]

[2] = tested on: Hep3B; test: Hep3B CDX mouse model; assay type: in vivo
Protocol: Animal experiments were conducted in accordance with ethical guidelines, and all protocols were approved by the Institutional Animal Care and Use Committee under Hanyang University (approval numbers, 2014‐0016A, 2018‐0049A, 2018‐0207A, and 2019‐0169A), Chung‐Ang University (approval number, 2015‐00022), Chungbuk University (approval number, CBNUA‐1072‐17‐02), and Konkuk University (approval number, KU17130). To establish xenograft mice models, Hep3B, A431, U343, and PC9 cells were subcutaneously injected into the flank of Balb/c nude mice. For the MDA‐MB‐231 (LM1) cell line, it was implanted into the mammary fat pad of immunodeficient mice (NPG mice). Once tumors were successfully established, the animals were randomly divided into a control (vehicle) group and an experimental (drug) group. When the tumor volume reached 100 cubic millimeters, either saline or an appropriate concentration of drugs was administrated into mice via tail vein every 3 or 5 days for appropriate duration. Tumor volume was calculated using the formula of length × width^2)/2. To generate an orthotopic liver cancer mice model, 75 mg kg^−1 (mpk) of DEN was intraperitoneally injected weekly for 3 weeks into C57BL/6 mice, followed by 100 mpk of DEN weekly for the subsequent 3 weeks. After 37 weeks of liver cancer induction, mice received either saline or an appropriate concentration of drugs via the tail vein every 5 days for the designated duration. The in vivo administration amount was determined based on the concentration of ACP52C confirmed at the cellular level, which was 2 µM. Assuming an average mouse weight of 30 grams and considering that ≈5.8% of body weight constitutes blood volume,^[ [49] ^] it was calculated that the blood concentration of ACP52C should be ten times the GI50 concentration in cell culture conditions. […] For ACP52C derivatives, the amount was adjusted to ensure a similar molar quantity of peptide injection, taking their molecular weights into account. For instance, in the case of ACP52CGK, ≈1.67 times the quantity was used compared to ACP52C to achieve an equivalent molar quantity. At the time of sacrifice, major organs and tumors were removed and weighed, and blood was extracted. For histological analysis, major organs and tumors of mice were immediately fixed in 10% formalin neutral buffer solution, dehydrated through a graded series of ethanol treatments, treated with xylene, paraffin embedded, and cut into 4 µm sections. Hematoxylin and eosin (H&E)‐stained tissue sections were analyzed and photographed, and the representative histological images were recorded. Liver nodules in the DEN orthotopic liver cancer model were estimated by measuring the ratio of tumor areas over entire liver tissues in the tissue section using an Image J (version 1.51) software at 40× magnification. Complete blood count (CBC) analysis was conducted using a Hematology analyzer (scil Vet ABC) from the extracted blood.

[3] = Storage stability of peptide activity; assay type: physicochemical; settings: stored in powder or solution form in a deep freezer
[4] = Nanoparticle formation in solution (DLS); assay type: physicochemical; settings: DLS in saline, 25 °C, each sample analyzed five times
Protocol: For determining the dimensions and nanoparticle formation of the peptides in solution, DLS analysis was performed using the Scatteroscope I nanoparticle size analyzer (K‐One, SOS1). Saline served as the negative control, and all experiments were conducted at a constant temperature of 25 °C. Each sample was analyzed five times, and the resulting data were graphically presented, incorporating all five profiles obtained from the experiments. The purity and dimer formation of the peptides were analyzed using HPLC and LC‐MS. HPLC analysis was carried out using a Shimadzu HPLC LabSolution equipped with a pump, an autosampler, a column oven, and a UV–vis detector. Chromatographic separation was performed on a Shimadzu C18 analytical column at 35 °C, with an injection volume of 20 µL (0.5 mg mL^−1). The mobile phases consisted of 0.05% trifluoroacetic acid (TFA) in water (A) and 0.05% TFA in acetonitrile (B). The flow rate was maintained at 1 mL min^−1, and the gradient program was as follows: 20–80% B over 30 min. Ionization was achieved using electrospray ionization (ESI) in positive mode with selected reaction monitoring (SRM). Mass spectrometry analysis was performed with an ESI source in the positive‐ionization mode.

[5] = administered at five‐day intervals
[6] = intravenous injection at three‐day intervals, Sorafenib orally once daily as positive control

Compound: CCCCCCCCCCCCCCCC(=O)N[C@@H](CCC(=O)NCCCC[C@H](NC(=O)CNC(=O)CNC(=O)[C@@H]1CCCN1C(=O)[C@H](CCCNC(=N)N)NC(=O)[C@H](CCC(N)=O)NC(=O)[C@@H]1CCCN1C(=O)[C@H](Cc1ccc(O)cc1)NC(=O)[C@H](CC(N)=O)NC(C)=O)C(=O)NCC(=O)NCC(=O)N[C@@H](CS)C(=O)N[C@@H](CCCNC(=N)N)C(=O)NCC(=O)N[C@@H](CC(=O)O)C(=O)N[C@@H](CCCCN)C(=O)NCC(=O)N1CCC[C@H]1C(=O)N[C@@H](CC(=O)O)C(=O)N[C@@H](CS)C(N)=O)C(=O)O [ACP52CGK] (Ac-NYPQRPGGK([γGlu-Palmitoyl])GGCRGDKGPDC-NH2)
- anti‐tumor efficacy ([1]; administered at five‐day intervals, NPG mice): remarkable anti‐tumor efficacy
- anti‐tumor activity [2, 5]: maintained its activity; also recorded: remarkable anti‐tumor efficacy
- anti‐tumor activity [2, 6]: activity similar to that of ACP52C
- loss of activity on storage [3]: gradually lose their activity over one year
- nanoparticle formation [4]: significant reduction in nanoparticle formation

Compound: CC(=O)N[C@@H](CC(N)=O)C(=O)N[C@@H](Cc1ccc(O)cc1)C(=O)N1CCC[C@H]1C(=O)N[C@@H](CCC(N)=O)C(=O)N[C@@H](CCCNC(=N)N)C(=O)N1CCC[C@H]1C(=O)N[C@@H](CS)C(=O)N[C@@H](CCCNC(=N)N)C(=O)NCC(=O)N[C@@H](CC(=O)O)C(=O)N[C@@H](CCCCN)C(=O)NCC(=O)N1CCC[C@H]1C(=O)N[C@@H](CC(=O)O)C(=O)N[C@@H](CS)C(N)=O [ACP52C] (Ac-NYPQRPCRGDKGPDC-NH2)
- tumor weight ([1]; intravenous injection every 2 or 3 days from day 14): significantly reduced tumor weight
- anti‐tumor activity [2, 5]: reduced anti‐tumor activity compared to the three‐day interval administration
- anti‐tumor activity [2, 6]: superior anti‐tumor activity compared to Sorafenib
- loss of activity on storage [3]: gradually lose their activity over one year
- nanoparticle formation [4]: majority of ACP52C exists in the form of nanoparticles in saline

Source: article PMC10667816, “A Cell‐Penetrant Peptide Disrupting the Transcription Factor CP2c Complexes Induces Cancer‐Specific Synthetic Lethality” (Advanced Science, 2023)
